# Laboratory results as given in US6525001B1, “Substituted pyrimidine and pyridine herbicides” (Mid-American Commercialization Corporation, priority 1997, dated 2003).
# Key:
# Type in all cases: in vivo
# [1] = system: sugar beet (Beta vulgaris); test: Test B pre-/postemergence; set-up: key: 0 is no effect; 10 is complete control
# In short: (§1)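 Response scores run from 0, meaning no effect, to 10, meaning complete control, assigned by eye relative to controls twelve to sixteen days after spraying. Treatment was both preemergence on planted seed and postemergence on plants at the 1- to 4-leaf stage.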
# corn (Zea mays) = test: Test B pre-/postemergence; set-up: key: 0 is no effect; 10 is complete control; details: for Corn plant response rating: Preemergence
# In short: as §1
# [2] = system: wheat (Triticum aestivum); test: Test B pre-/postemergence; set-up: key: 0 is no effect; 10 is complete control
# In short: as §1
# [3] = system: velvetleaf (Abutilon theophrasti); test: Test B pre-/postemergence; set-up: key: 0 is no effect; 10 is complete control
# In short: as §1
# [4] = system: crabgrass (Digitaria sanguinalis); test: Test B pre-/postemergence; set-up: key: 0 is no effect; 10 is complete control; details: for Crabgrass plant response rating: Preemergence
# In short: as §1
# rape (Brassica napus) = test: Test B pre-/postemergence; set-up: key: 0 is no effect; 10 is complete control
# In short: as §1
# wild oat (Avena fatua) = test: Test B pre-/postemergence; set-up: key: 0 is no effect; 10 is complete control
# In short: as §1
# [5] = system: pigweed (Amaranthus retroflexus); test: Test B pre-/postemergence; set-up: key: 0 is no effect; 10 is complete control
# In short: as §1
# [6] = system: cocklebur (Xanthium strumarium); test: Test B pre-/postemergence; set-up: key: 0 is no effect; 10 is complete control; details: for Cocklebur plant response rating: Preemergence
# In short: as §1
# [7] = system: momingglory (Ipomoea hederacea); test: Test B pre-/postemergence; set-up: key: 0 is no effect; 10 is complete control
# In short: as §1
# [8] = system: broadleaf signalgrass (Brachiaria decumbens); test: Test B pre-/postemergence; set-up: key: 0 is no effect; 10 is complete control; details: for B. signalgrass plant response rating: Preemergence
# In short: as §1
# [9] = system: blackgrass (Alopecurus myosuroides); test: Test B pre-/postemergence; set-up: key: 0 is no effect; 10 is complete control; details: for Blackgrass plant response rating: Preemergence
# In short: as §1
# [10] = system: giant foxtail (Setaria faberii); test: Test B pre-/postemergence; set-up: key: 0 is no effect; 10 is complete control
# In short: as §1
# [11] = system: purple nutsedge (Cyperus rotundus); test: Test B pre-/postemergence; set-up: key: 0 is no effect; 10 is complete control; details: Postemergence
# In short: as §1
# soybean (Glycine max) = test: Test B pre-/postemergence; set-up: key: 0 is no effect; 10 is complete control
# In short: as §1
# [12] = system: bedstraw (Galium aparine); test: Test B pre-/postemergence; set-up: key: 0 is no effect; 10 is complete control; details: for Bedstraw plant response rating: Preemergence
# In short: as §1
# rice (Oryza sativa) = test: Test B flood test
# In short: (§2)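 Each value is a visual injury score relative to controls, with 10 meaning complete control and 0 no effect. Evaluation took place twelve to sixteen days after the 2-leaf-stage plants were treated and kept in the greenhouse.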
# [13] = system: duck salad (Heteranthera limosa); test: Test B flood test
# In short: as §2
# [14] = system: smallflower flatsedge (Cyperus difformis); test: Test B flood test
# In short: as §2
# [15] = system: bamyardgrass (Echinochloa crus-galli); test: Test B flood test
# In short: as §2
# [16] = Rate 250 g/ha, Postemergence (so in the source)
# [17] = Rate 62 g/ha, Postemergence (flood test)
# [18] = Rate 125 g/ha, Postemergence section (flood test species)
# [19] = Rate 250 g/ha, Postemergence (flood test species)
# [20] = Rate 125 g/ha, Postemergence, flood test
smiles,measurement,setting,value
CCc1cnc(-c2ccc(C(F)(F)F)cc2)nc1Cc1cccc(OC(F)(F)F)c1 [Compound 41],"Plant response rating, Sugarbeets","[1]; Rate 62 g/ha, Postemergence",10
same,Sugarbeets plant response rating,"[1]; Rate 62 g/ha, Preemergence",3
same,Sugarbeets plant response rating,"[1]; Rate 125 g/ha, Postemergence",10
same,"Plant response rating, Sugarbeets","[1]; Rate 125 g/ha, Preemergence",6
same,"Plant response rating, Sugarbeets","[1]; Rate 250 g/ha, Postemergence",10
same,"Plant response rating, Sugarbeets",[1]; [16],8
same,"Plant response rating, Corn","corn (Zea mays); Rate 62 g/ha, Postemergence",2
same,Corn plant response rating,corn (Zea mays); Rate 62 g/ha,0
same,"Plant response rating, Corn","corn (Zea mays); Rate 125 g/ha, Postemergence",2
same,Corn plant response rating,corn (Zea mays); Rate 125 g/ha,1
same,"Plant response rating, Corn","corn (Zea mays); Rate 250 g/ha, Postemergence",3
same,"Plant response rating, Corn",corn (Zea mays); [16],1
same,Wheat plant response rating,"[2]; Rate 62 g/ha, Postemergence",2
same,Wheat plant response rating,"[2]; Rate 62 g/ha, Preemergence",1
same,Wheat plant response rating,"[2]; Rate 125 g/ha, Postemergence",3
same,"Plant response rating, Wheat","[2]; Rate 125 g/ha, Preemergence",1
same,"Plant response rating, Wheat","[2]; Rate 250 g/ha, Postemergence",3
same,"Plant response rating, Wheat",[2]; [16],2
same,"Plant response rating, Velvetleaf","[3]; Rate 62 g/ha, Postemergence",8
same,Velvetleaf plant response rating,"[3]; Rate 62 g/ha, Preemergence",1
same,Velvetleaf plant response rating,"[3]; Rate 125 g/ha, Postemergence",8
same,"Plant response rating, Velvetleaf","[3]; Rate 125 g/ha, Preemergence",3
same,"Plant response rating, Velvetleaf","[3]; Rate 250 g/ha, Postemergence",8
same,"Plant response rating, Velvetleaf",[3]; [16],10
same,"Plant response rating, Crabgrass","[4]; Rate 62 g/ha, Postemergence",7
same,Crabgrass plant response rating,[4]; Rate 62 g/ha,8
same,"Plant response rating, Crabgrass","[4]; Rate 125 g/ha, Postemergence",9
same,Crabgrass plant response rating,[4]; Rate 125 g/ha,9
same,"Plant response rating, Crabgrass","[4]; Rate 250 g/ha, Postemergence",10
same,"Plant response rating, Crabgrass",[4]; [16],9
same,"Plant response rating, Rape","rape (Brassica napus); Rate 62 g/ha, Postemergence",10
same,Rape plant response rating,"rape (Brassica napus); Rate 62 g/ha, Preemergence",3
same,Rape plant response rating,"rape (Brassica napus); Rate 125 g/ha, Postemergence",10
same,Rape plant response rating,"rape (Brassica napus); Rate 125 g/ha, Preemergence",3
same,"Plant response rating, Rape","rape (Brassica napus); Rate 250 g/ha, Postemergence",10
same,"Plant response rating, Rape",rape (Brassica napus); [16],4
same,Wild oats plant response rating,"wild oat (Avena fatua); Rate 62 g/ha, Postemergence",4
same,Wild oats plant response rating,"wild oat (Avena fatua); Rate 62 g/ha, Preemergence",4
same,Wild oats plant response rating,"wild oat (Avena fatua); Rate 125 g/ha, Postemergence",5
same,"Plant response rating, Wild oats","wild oat (Avena fatua); Rate 125 g/ha, Preemergence",9
same,"Plant response rating, Wild oats","wild oat (Avena fatua); Rate 250 g/ha, Postemergence",7
same,"Plant response rating, Wild oats",wild oat (Avena fatua); [16],9
same,"Plant response rating, Redroot pigweed","[5]; Rate 62 g/ha, Postemergence",9
same,Redroot pigweed plant response rating,"[5]; Rate 62 g/ha, Preemergence",4
same,Redroot pigweed plant response rating,"[5]; Rate 125 g/ha, Postemergence",10
same,Redroot pigweed plant response rating,"[5]; Rate 125 g/ha, Preemergence",10
same,"Plant response rating, Redroot pigweed","[5]; Rate 250 g/ha, Postemergence",10
same,"Plant response rating, Redroot pigweed",[5]; [16],10
same,"Plant response rating, Cocklebur","[6]; Rate 62 g/ha, Postemergence",7
same,Cocklebur plant response rating,[6]; Rate 62 g/ha,0
same,"Plant response rating, Cocklebur","[6]; Rate 125 g/ha, Postemergence",8
same,Cocklebur plant response rating,[6]; Rate 125 g/ha,0
same,"Plant response rating, Cocklebur","[6]; Rate 250 g/ha, Postemergence",9
same,"Plant response rating, Cocklebur",[6]; [16],0
same,"Plant response rating, Morningglory","[7]; Rate 62 g/ha, Postemergence",8
same,Morningglory plant response rating,"[7]; Rate 62 g/ha, Preemergence",1
same,Morningglory plant response rating,"[7]; Rate 125 g/ha, Postemergence",8
same,Morningglory plant response rating,"[7]; Rate 125 g/ha, Preemergence",1
same,"Plant response rating, Morningglory","[7]; Rate 250 g/ha, Postemergence",8
same,"Plant response rating, Morningglory",[7]; [16],2
same,"Plant response rating, B. signalgrass","[8]; Rate 62 g/ha, Postemergence",2
same,B. signalgrass plant response rating,[8]; Rate 62 g/ha,2
same,"Plant response rating, B. signalgrass","[8]; Rate 125 g/ha, Postemergence",3
same,B. signalgrass plant response rating,[8]; Rate 125 g/ha,6
same,"Plant response rating, B. signalgrass","[8]; Rate 250 g/ha, Postemergence",6
same,"Plant response rating, B. signalgrass","[8]; Rate 250 g/ha, Postemergence as printed in head r139 (second section for compounds 26-50)",7
same,"Plant response rating, Blackgrass","[9]; Rate 62 g/ha, Postemergence",5
same,Blackgrass plant response rating,[9]; Rate 62 g/ha,7
same,"Plant response rating, Blackgrass","[9]; Rate 125 g/ha, Postemergence",6
same,Blackgrass plant response rating,[9]; Rate 125 g/ha,9
same,"Plant response rating, Blackgrass","[9]; Rate 250 g/ha, Postemergence",8
same,"Plant response rating, Blackgrass",[9]; [16],10
same,"Plant response rating, Giant foxtail","[10]; Rate 62 g/ha, Postemergence",2
same,Giant foxtail plant response rating,"[10]; Rate 62 g/ha, Preemergence",6
same,Giant foxtail plant response rating,"[10]; Rate 125 g/ha, Postemergence",6
same,Giant foxtail plant response rating,"[10]; Rate 125 g/ha, Preemergence",9
same,"Plant response rating, Giant foxtail","[10]; Rate 250 g/ha, Postemergence",9
same,"Plant response rating, Giant foxtail",[10]; [16],10
same,"Plant response rating, Nutsedge",[11]; Rate 62 g/ha,0
same,Nutsedge plant response rating,[11]; Rate 125 g/ha,0
same,"Plant response rating, Nutsedge",[11]; Rate 250 g/ha,0
same,"Plant response rating, Soybean","soybean (Glycine max); Rate 62 g/ha, Postemergence",5
same,Soybean plant response rating,"soybean (Glycine max); Rate 62 g/ha, Preemergence",0
same,Soybean plant response rating,"soybean (Glycine max); Rate 125 g/ha, Postemergence",7
same,"Plant response rating, Soybean","soybean (Glycine max); Rate 125 g/ha, Preemergence",0
same,"Plant response rating, Soybean","soybean (Glycine max); Rate 250 g/ha, Postemergence",7
same,"Plant response rating, Soybean",soybean (Glycine max); [16],1
same,"Plant response rating, Bedstraw","[12]; Rate 62 g/ha, Postemergence",9
same,Bedstraw plant response rating,[12]; Rate 62 g/ha,2
same,"Plant response rating, Bedstraw","[12]; Rate 125 g/ha, Postemergence",9
same,Bedstraw plant response rating,[12]; Rate 125 g/ha,2
same,"Plant response rating, Bedstraw","[12]; Rate 250 g/ha, Postemergence",10
same,"Plant response rating, Bedstraw",[12]; [16],8
same,"Plant response rating, Rice",rice (Oryza sativa); [17],5
same,Rice plant response rating,rice (Oryza sativa); [18],5
same,"Plant response rating, Rice",rice (Oryza sativa); [19],6
same,"Plant response rating, Ducksalad",[13]; [17],2
same,"Plant response rating, Ducksalad",[13]; [20],3
same,"Plant response rating, Ducksalad",[13]; [19],5
same,"Plant response rating, S. Flatsedge",[14]; [17],5
same,S. Flatsedge plant response rating,[14]; [18],7
same,"Plant response rating, S. Flatsedge",[14]; [19],9
same,"Plant response rating, Barnyardgrass",[15]; [17],5
same,"Plant response rating, Barnyardgrass",[15]; [20],5
same,"Plant response rating, Barnyardgrass",[15]; [19],5
